Values of other authors as cited in patent US20230002726A1, “METHODS OF IN-OVO SCREENING OF ANTI-CANCER THERAPIES” (ICHILOV TECH LTD., priority 2020, published 2023).

System: MSI-low tumors
Conditions: stated as known; cited from earlier work

## Pembrolizumab [Keytruda]
  known effectiveness: ineffective
